Reference: US20210275543A1, “METHODS FOR THE TREATMENT OF MITOCHONDRIAL GENETIC DISEASES” (NSERM (INSTITUT NATIONAL DE LA SANTÉ ET DE LA RECHERCHE …, priority 2017, published 2021)

Experiments:
[1] = test system: primary dermal fibroblasts from patients with mitochondrial disorders and controls; test: Analysis of mitochondrial membrane potential and morphology (TMRE / 10-NAO staining, confocal microscopy and flow cytometry); type: cell-based, human
Experimental: (§1) Punch skin biopsies were collected using standard methods.
(§2) To generate dermal fibroblast cultures, biopsies were minced and incubated at room temperature in 0.05% trypsin-EDTA (ThermoFisher 25300054) solution for 30 min with gentle shaking. Cells were collected by centrifuging at 700 g for 10 min, re-suspended in cell culture media containing 25% FBS, and plated onto 24 well plates to establish lines. Fibroblast cultures were grown and maintained in 1×MEM (Corning 10-010-CV) supplemented with 25% FBS and penicillin/streptomycin (Corning 30-001-CI) to a final concentration of 100 IU penicillin and 500 μg/mL streptomycin.
Cells at similar population doubling (PD-10+/−2) were plated 1:4 from confluent cultures onto coverglass chamberslides and allowed to grow until ˜80% confluent. Media was replaced and supplemented with […] BYL719 (Chem Express) in DMSO (Fisher BP321-1), or equal volume DMSO, for 48 hours. Cells were stained for 15 min in media with 100 nM tetramethylrhodamine ethyl ester (TMRE, Fisher BDB564696) and 5 μg/mL Hoechst 33342 (Biotium 89139-126) and imaged on a Leica SP5 confocal microscope. Samples were treated and imaged in one session using identical imaging parameters. Flow cytometry analysis was performed by staining cells with only TMRE or 10-N-nonyl acridine orange (10-NAO), dissociating with trypsin-EDTA containing dye for 10 min at room temperature, collecting cells by centrifugation, resuspension in cold PBS, and analysis on a BD Canto II flow cytometer using 488 nm excitation with 585/42 BP and 530/30 BP filters for TMRE and 10-NAO, respectively. A single gate was set to cells using forward and side scatter and all settings unchanged throughout data collection. 10,000 or more events were collected for every sample.

[2] = test system: phosphorylated ribosomal protein S6 (mTORC1 signaling); test: Analysis of S6 phosphorylation by western blotting in primary dermal fibroblasts; type: cell-based, human; settings: for S6 phosphorylation (phosphorylated ribosomal protein S6 vs total rpS6, GAPDH): 48 hours of treatment, 5 μmol/L BYL719
Experimental: as §1, §2
Cells at similar population doubling (PD-10+/−2) were plated 1:4 from confluent cultures and allowed to grow until ˜80% confluent. Media was replaced with media containing 5 μmol/L BYL719 (Chem Express) in DMSO or equal volume DMSO for 48 hours. Cultures were rinsed with 1×PBS, treated for 10 min with 0.05% Trypsin, collected by centrifugation at 4° C., and pellets were flash frozen on dry ice. Protein lysates were collected by directly adding 1×RIPA buffer (Pierce 89900) containing protease and phosphatase inhibitors (Pierce PI78441) to cell pellets, sonicating in 10 one-second bursts, on ice, with an XL-2000 QSonica at maximum output, and centrifuging to remove cell debris. Protein concentration was determined by BCA assay (Pierce PI23228), equal protein run on 4-12% bis-tris 26 well NuPage midigels (Fisher WG1403), and transferred to nitrocellulose blots (Fisher IB23001). Blots were blocked in LICOR Odyssey blocking buffer (LICOR 427-40100), probed with primary antibodies anti-pS6, anti-S6, and anti-GAPDH (Cell Signaling 4858P, 2217S, and 2118S, respectively) followed by secondary antibody IRDye800 donkey anti-rabbit (LICOR 925-32213) and imaged using LICOR Odyssey Clx scanning imager as previously described^9. Data quantified using NIH ImageJ^11.

Ndufs4−/− mice = test: PIK3CA inhibition in Ndufs4 knockout mouse model of Leigh syndrome (survival); type: in vivo; settings: 50 mg·kg-1 daily p.o.
Description: Leigh Syndrome is a severe mitochondrial disease that occurs in about 1:40,000 newborns and is associated with retarded growth, muscular deficits including myopathy and dyspnea, lactic acidosis, and a characteristic progressive necrotizing encephalopathy of the vestibular nuclei, cerebellum, and olfactory bulb (Budde et al., 2002). Ndufs4 encodes a subunit of Complex I of the mitochondrial electron transport chain; mutations in the NDUFS4 gene cause LS in humans (Budde et al., 2000), and the Ndufs4 knockout mouse is a murine model of LS (Kruse et al., 2008). Ndufs4−/− mice have decreased Complex I levels and activity in multiple tissues and show severe and progressive symptoms of mitochondrial disease that mirror human LS. LS results in death at an average of […] in humans, and Ndufs4 KO mice show a similar early-life mortality with an average lifespan of just 60 days. Heterozygous Ndufs4 knockout mice on a C57Bl/6NIA background were bred to produce homozygous KO animals. Animals were fed ad libitum and housed at a constant ambient temperature in a 12-hour light cycle. Animal procedures were approved by the “Services Vétérinaires de la Prefecture de Police de Paris” Departmental Director and by the ethical committee of the Paris Descartes University.
At the age of 21 days, Ndufs4−/− mice were treated with the PI3KCA inhibitor, BYL719 (MedChem Express; 50 mg·kg-1 in 0.5% carboxymethylcellulose (Sigma Aldrich), daily p.o.) (n=9) or vehicle (0.5% carboxymethylcellulose (Sigma Aldrich), daily p.o.) (n=8).

[3] = primary MELAS patient and control fibroblast lines, FIG. 1A

| Molecule | mitochondrial membrane potential (TMRE staining intensity) and morphology (fragmentation, depolarized mitochondria) ([1]; MELAS fibroblasts, 48 hours, confocal microscopy, FIG. 1C) | membrane potential (TMRE) by flow cytometry ([1]; MELAS fibroblasts, flow cytometry, data not shown) | mitochondrial membrane potential (TMRE staining intensity) and morphology ([1]; control cells, 48 hours, confocal microscopy, FIG. 1C) | pS6 levels ([2]; all cell lines (patients with mitochondrial disorders and controls), 48 hours, FIGS. 1A and 1B) | S6 phosphorylation (phosphorylated ribosomal protein S6 vs total rpS6, GAPDH) ([2]; other mitochondrial disorders and control fibroblast lines, FIG. 1B) | S6 phosphorylation (phosphorylated ribosomal protein S6 vs total rpS6, GAPDH) [2, 3] | animal survival (Ndufs4−/− mice; Ndufs4−/− mice treated from age 21 days, vs vehicle, FIG. 2) | appearance of treated animals (Ndufs4−/− mice; Ndufs4−/− mice, 120 days later) | time alive (Ndufs4−/− mice; Ndufs4−/− mice, all placebo-treated mice died within 80 days) |
| --- | --- | --- | --- | --- | --- | --- | --- | --- | --- |
| Cc1nc(NC(=O)N2CCC[C@H]2C(N)=O)sc1-c1ccnc(C(C)(C)C(F)(F)F)c1 [BYL719, Alpelisib] | attenuated these phenotypes in all MELAS fibroblasts | rescue | no overt impact | reduced pS6 levels in all cell lines | inhibited S6 phosphorylation | inhibited S6 phosphorylation | dramatically improved animal survival | overtly normal appearance | ≥ 120 days |
| cyclosporin A |  |  |  |  |  | no significant impact |  |  |  |
